Experimental data published in US5476851A, “Pyrazolo[3,4-g]quinoxaline compounds which inhibit PDGF receptor protein tyrosine kinase” (Rhone-Poulenc Rorer Pharmaceuticals, Inc., priority 1994, dated 1995).

Target: T1, PDGF-R (Mus musculus, UniProt P05622)
T1 construct: endogenous in cells; host or cells: NIH 3T3 cells (lysate, immunoprecipitate)
Test: Inhibition of PDGF-R cell-free autophosphorylation
Assay type: biochemical
Conditions: lysate from NIH 3T3 cells, stimulated with 10 ng/ml PDGF, [γ-^32 P]ATP, 4° C., immunoprecipitation
Method: In order to test the present compounds for inhibition, the following procedure using PDGF stimulation is used. "IC50," as used below refers to the concentration of inhibitor ([…]) at which the rate of autophosphorylation is halved, compared with media containing no inhibitor.
Inhibition of PDGF-R Autophosphorylation
Lysate from NIH 3T3 cells was diluted one-third in Triton-free buffer and stimulated with 10 ng/ml PDGF for 30 minutes at 4° C. The equivalent of 1/15 of a 175. cm^2 plate of lysate was used per sample. The stimulated lysate was then immunoprecipitated with rabbit polyclonal anti-PDGF-receptor antibodies raised against a synthetic peptide from the COOH-terminal region (amino acids 1094-1106) or the human PDGF-receptor β-subunit and added to increasing concentrations of test compound of the present invention. After 10 minutes at 4° C., 10 μCi of [γ-^32 P]ATP were added and further incubated for 10 minutes at 4° C. Samples were separated by SDS-PAGE on 6% gels.
The following tables show examples of representative compounds of this invention and their test results as determined by the above inhibition of PDGF-R cell-free autophosphorylation procedure.

T1 sequence (P05622 32-1098): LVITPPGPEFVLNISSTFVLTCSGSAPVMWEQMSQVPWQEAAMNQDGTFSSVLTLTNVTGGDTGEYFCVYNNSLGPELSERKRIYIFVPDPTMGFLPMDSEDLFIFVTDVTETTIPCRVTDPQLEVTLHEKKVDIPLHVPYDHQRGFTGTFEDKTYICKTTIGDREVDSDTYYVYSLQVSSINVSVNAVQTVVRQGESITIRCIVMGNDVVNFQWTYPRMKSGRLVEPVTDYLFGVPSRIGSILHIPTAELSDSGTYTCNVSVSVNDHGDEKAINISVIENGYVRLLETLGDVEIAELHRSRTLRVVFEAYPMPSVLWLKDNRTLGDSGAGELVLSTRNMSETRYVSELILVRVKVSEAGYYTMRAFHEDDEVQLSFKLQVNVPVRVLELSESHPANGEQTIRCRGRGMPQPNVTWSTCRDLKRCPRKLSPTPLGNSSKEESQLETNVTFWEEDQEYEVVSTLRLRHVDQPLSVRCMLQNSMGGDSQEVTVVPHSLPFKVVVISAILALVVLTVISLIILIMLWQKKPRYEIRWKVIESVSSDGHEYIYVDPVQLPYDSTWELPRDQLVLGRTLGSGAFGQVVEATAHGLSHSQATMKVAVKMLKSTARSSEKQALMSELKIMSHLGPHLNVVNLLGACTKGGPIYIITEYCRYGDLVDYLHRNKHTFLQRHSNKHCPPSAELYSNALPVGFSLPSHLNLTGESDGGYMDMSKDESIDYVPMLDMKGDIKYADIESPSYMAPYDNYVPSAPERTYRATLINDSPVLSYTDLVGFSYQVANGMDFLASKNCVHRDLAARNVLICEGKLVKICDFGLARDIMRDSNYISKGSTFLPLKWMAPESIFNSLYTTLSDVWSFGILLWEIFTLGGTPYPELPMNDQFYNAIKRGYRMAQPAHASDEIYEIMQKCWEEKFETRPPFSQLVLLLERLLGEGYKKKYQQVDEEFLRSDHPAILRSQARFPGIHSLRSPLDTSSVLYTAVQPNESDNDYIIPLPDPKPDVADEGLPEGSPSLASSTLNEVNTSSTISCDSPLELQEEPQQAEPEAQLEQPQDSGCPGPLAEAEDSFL

Compound | IC50 [nM]
Cn1cc2cc3ncc(-c4ccc(Cl)s4)nc3cc2n1 | 300
COc1ccc(-c2cnc3cc4cn(C)nc4cc3n2)cc1F | < 20
Clc1ccc(-c2cnc3cc4cn[nH]c4cc3n2)s1 | 2000 to 10000

Other lines, results leading:

IC50 [nM] | Compound
< 20 | COc1ccc(-c2cnc3cc4cn[nH]c4cc3n2)cc1F
< 2000 | COc1ccc(-c2cnc3cc4cnn(C)c4cc3n2)cc1F
